The source of these data is US8703726B2, “Methods for treating prostate conditions” (PTC Therapeutics, Inc., priority 2009, dated 2014).

SMILES strings stand for the structures. Read-outs that look alike come from different tables or passages of the source.

The subject of series [1] is LNCaP prostate tumor cells. Description: LNCaP tumors in SCID mice: Compound #10 as monotherapy and with bicalutamide.
Protocol: (§1) Male C.B.17 SCID mice (Charles River Laboratory; Wilmington, Mass.) were inoculated with LNCaP prostate tumor cells (6.1×10^6 cells/mouse) obtained from the ATCC (Manassas, Va.). […] Mice were inoculated using a 25 gauge needle in the right flank in a volume of 0.2 mL. A total of 95 mice were injected, of which 32 were used.
(§2) Twenty-seven days after inoculation, the mice were randomized into 4 groups as outlined in Table 33. […] Treatment started on Day 0 and continued through Day 30.
(§3) Body Weight: One day prior to the initiation of the study, the mice were weighed. Thereafter, mice were weighed every week and on the day that the study was terminated.
(§4) Tumor Size: Tumors were measured every 3 to 4 days using digital calipers. To calculate tumor volume, the following calculation was used, where L equals the longest dimension measurement and W equals the shortest dimension measurement:
(§5) Tumor growth was calculated as: [1-[(final tumor size minus initial tumor size in test compound treated-mice)/(final tumor size minus initial tumor size in vehicle-treated mice)]×100%
(§6) Percent change in body weight was calculated as: [(Body weight on Day of study)−(initial body weight)/(initial body weight)]×100%
(§7) Differences in tumor size, tumor growth, and body weight change among groups were analyzed by ANOVA (analysis of variance) (SigmaStat 3.0).
The test system of series [2] is LNCaP prostate tumor cells. The conditions noted are these: mouse, in vivo, po, 25 mg/kg.
Protocol: as §1, §2, §3, §4, §5, §6, §7
The subject of series [3] is LNCaP prostate tumor cells. Description: LNCaP tumors in SCID mice: Compound #10 as monotherapy and with docetaxel.
Protocol: as §1
(§8) Treatment started on Day 0 and continued through Day 31.
as §3, §4
(§9) Data Analysis: Tumor growth was calculated as: [1-[(final tumor size minus initial tumor size in test compound treated-mice)/(final tumor size minus initial tumor size in vehicle-treated mice)]×100%
as §6, §7
The next series deals with PC3 xenografts. Description: PC3 tumors in mice: Compound #10 as monotherapy and with docetaxel.
The subject of series [4] is LNCaP prostate tumor cells. The settings on record: mouse, in vivo, iv, 3 mg/kg.
Protocol: as §1, §8, §3, §4, §9, §6, §7
Another series relates to HT1080 cells. The series can be described thus: Cell cycle analysis by propidium iodide flow cytometry in HT1080 cells (% cells in S-phase, Table 24). It counts as cell-based, human. The settings on record: same tumor cells. On the procedure: Experimental Design. […] After treatment, cells were trypsinized, and stained with propidium iodide (PI) dye to measure DNA content of individual cells by flow cytometry. Output comprised histograms showing relative DNA content in 10,000 cells.
While compounds which cause greater than 20% of the cells to accumulate in S-phase at 100 nM are considered active, a larger percentage of cells may be accumulated in S-phase at lower doses depending on the Compound, as shown in FIG. 12 for example.

[5] abbreviates: Bicalutamide, 25 mg/kg QD on Days 0, 1, 2, 3, 6, 7, 8, 9, and 10, L21 vehicle, QD, oral.
Setting [6] is: Docetaxel, 3 mg/kg IV on Days 1 and 8, Vehicle, QD, daily.

Protocol for PC3 xenografts: PC3 cells (CRL 1435) obtained from the American Type Tissue Collection (ATCC, Manassas, Va.) were thawed and seeded at 0.5×10^7 cells per 175 mm^2 flask. Cells were fed and expanded on a regular schedule to reach a given density prior to passage. Flasks were between 80-90% confluent, but not >95% confluent on the day of harvest. Harvest occurred ˜48 hr after the previous split to allow for full recovery.
To harvest the cells, medium was removed from the flasks and the cell layers rinsed with 37° C. PBS. A volume of 3 mL trypsin-EDTA was added per 175 cm^2 surface area and incubated at room temperature for 5 minutes until the cells detached. The cells were collected in 7-10 mL ice cold complete medium and were transferred to a conical tube. The tube was placed immediately on ice. After all flasks were harvested, the cells were pelleted by centrifugation at 4° C. Cells were re-suspended at 2.5×10^7 cells/mL in Hank's Salt Solution and 10 mM HEPES. Cells were stored on ice until the time of tumor inoculation (which was less than 1 h later).
Tumor Cell Injection: Tumor cells were kept on ice at all times. […] A 25-gauge needle was used for tumor cell injections. Tumor cells were injected in a volume of 0.2 mL subcutaneously. A total of 100 mice were inoculated, of which 69 were used in the study.
Seventeen days after inoculation, the mice were randomized into six groups. At this time, the majority of the tumors had reached a volume of 170-415 mm^3. Randomization of the mice was performed by using the formula RAND ( )*5000 from Microsoft Excel. […] Animals with tumors that were not within the 170-415 mm^3 range were excluded from the study.
Furthermore, all animals in a group were taken off study when the mean tumor size in that group reached 1000 mm^3.
as §4
Differences in mean tumor size, tumor growth, and body weight change were compared across groups using analysis of variance (ANOVA) (SigmaStat 3.0).
To calculate the time to progression, defined as the number of days for a tumor to reach 1000 mm^3, tumor growth vs time was individually plotted for each animal. The time to reach 1000 mm^3 estimated for each animal. […] The median and mean time for each treatment group to reach 1000 mm^3 was then calculated and groups were compared using ANOVA (SigmaStat 3.0).
as §3

Turning to `CC(O)(CS(=O)(=O)c1ccc(F)cc1)C(=O)Nc1ccc(C#N)c(C(F)(F)F)c1` (centres unmarked) [bicalutamide], in series [1] (setting [5]), the “Percent Inhibition Relative to Vehicle: Tumor Growth From Day 0 to 31” value is 9.3%^ and the “Percent Inhibition Relative to Vehicle: Tumor Volume at Day 31” value amounted to 7.2%^. Besides, the “mean±SD tumor size” value in series [1] (Day 30, Compound #10 10 mg/kg PO QD, bicalutamide 25 mg/kg QD) is 1059±321 mm3. In series [2], the “Day of Maximal Loss (body weight)” value turned out to be 20 days and the “Maximal Body Weight Loss From Initial Weight” value is recorded as −5.3%.

`CC(=O)O[C@@]12CO[C@@H]1C[C@H](O)[C@@]1(C)C(=O)[C@H](O)C3=C(C)[C@@H](OC(=O)[C@H](O)[C@@H](NC(=O)OC(C)(C)C)c4ccccc4)C[C@@](O)([C@@H](OC(=O)c4ccccc4)[C@H]21)C3(C)C` [docetaxel]: in series [3] (Day 31, Compound #10 10 mg/kg PO QD, docetaxel 3 mg/kg Days 1 and 8), the “mean±SD tumor size” value was 1017±458 mm3. Besides, in series [3] (Day 31, docetaxel 3 mg/kg Days 1 and 8), the “inhibition of tumor size or of the increase in tumor size versus vehicle” value is “No statistically significant differences”. In addition, in series [3] (setting [6]), the “Percent Inhibition Relative to Vehicle: Tumor Growth From Day 0 to 31” value was 17% and the “Percent Inhibition Relative to Vehicle: Tumor Volume at Day 31” value came out at 12%. Also, in the series with PC3 xenografts (3 mg/kg IV Day 1, 8 and 10 mg/kg Day 29, vehicle 22), the “Average Time on Therapy” value is given as 23 days. Moreover, the “Median Time to Reach 1000 mm^3 (time to progression)” value in the series on PC3 xenografts (3 mg/kg IV Day 1, 8 and 10 mg/kg Day 29, vehicle 23) turned out to be 22 days. Besides, the “body weight change” value with PC3 xenografts (PC3 tumor-bearing mice, Day 35 / Day 42) is on record as “significantly more weight loss”. The “median time to progression (tumor ≧1000 mm^3)” value in the series with PC3 xenografts (docetaxel IV 3 mg/kg on Day 1 and at 8 and 10 mg/kg on Day 29) is reported as 22 days. Also, the “tumors vs vehicle-treated mice” value in the series on PC3 xenografts (docetaxel IV, up to Day 35) is listed as “not significantly different from the tumors in vehicle-treated mice”. Further, in series [4], the “Day of Maximal Loss (body weight)” value was “(Day 13)” and the “Maximal Body Weight Loss From Initial Weight” value is −15%.

For `NC(Cn1ccc(=O)c(O)c1)C(=O)O` (centres unmarked) [mimosine], the “effect of comparator on cell cycle (and VEGF production) (data not shown)” value in the series on HT1080 cells is reported as “does not delay or prolong the cell cycle or reduce VEGF production”.
